Paper PMC12557438, “Thiadiazino-indole, thiadiazino-carbazole and benzothiadiazino-carbazole dioxides: synthesis, physicochemical and early ADME characterization of representatives of new tri-, tetra- and pentacyclic ring systems and their intermediates” (Beilstein Journal of Organic Chemistry, 2025)
≈ marks a conversion by molar mass, not a printed value. Where two headings read alike, the source gives them in different places.

What was measured:
[1] = Kinetic aqueous solubility assay; assay type: physicochemical; set-up: key to Kinetic solubility (no value): –: Compounds with no value were under the detection limit; settings: for solubility kinetic at 2 h: PBS buffer, pH 6.5, aqueous buffer, kinetic from dmso stock; for Kinetic solubility (no value): PBS pH 6.5, 2 hours, dash = under the detection limit
Protocol: Kinetic aqueous solubility assay. All compounds were dissolved in DMSO to make stock solutions at 10 mM concentration. […] 5 μL of the stock solutions was pipetted into a 96-well plate containing 495 μL PBS (pH 6.5) in each well to achieve 100 μM target concentration (1% DMSO). […] The plate was then sealed and shaken for 2 hours at room temperature. Each compound was investigated in 3 replicates. After 2 hours, the samples were filtered on a MultriscreenHTS filter plate (MSSLBPC, polycarbonate membrane, Merck KGaA, Darmstadt, Germany) by a Millipore Vacuum Manifold (Merck KGaA, Darmstadt, Germany). Before analyzing, 20 vol % acetonitrile was added to each well to avoid sample precipitation during HPLC analysis.
(§1) Analytical methods. […] For a 7-minute long gradient program, eluents A (0.1% formic acid in water) and B (0.1% formic acid in acetonitrile) were used as follows: initial conditions with 30% B were kept for 1 minute, then 90% B was achieved within 3 minutes, kept for further 1 minute, finally the initial condition was adjusted and equilibrated for further 2 minutes. 5-Point calibration series were measured from each compound resulting in R^2 ≈ 0.9990–0.9999.

[2] = Determination of the capacity factor (logk) by RP-HPLC; assay type: physicochemical; settings: reversed-phase chromatographic capacity factor, eluent pH 7.0
Protocol: Determination of the capacity factor. […] The same analytical method was used with modified eluents: eluent A was 20 mM triethylamine with phosphoric acid (pH 7.0), and eluent B was acetonitrile without additives. The method time was slightly extended, with a 1-minute longer gradient, resulting in an 8-minute program. The capacity factor was calculated with Equation 3: […]
where k is the capacity factor, tR is the retention time (min) of the compounds and t0 is the dead-time of the column (min).

[3] = In vitro gastrointestinal permeability assay (GI PAMPA); assay type: in vitro ADME; settings: for GI PAMPA membrane retention (MR) category: class in words; for GI PAMPA membrane retention / GI PAMPA penetration: donor pH 6.5, acceptor pH 7.4, 1% DMSO, 37 °C, 4 hours, mean of 3 replicates; for GI PAMPA permeability in words: wording of the text, outside the class key
Protocol: In vitro gastrointestinal permeability assay. […] The artificial membrane was fabricated by dissolving ʟ-α-phosphatidylcholine (16 mg) and cholesterol (4 mg) in a solvent mixture of chloroform, hexane and dodecane (5/70/25 vol %). Each well of the PAMPA donor plate (MAIPNTR, PVDF membrane, Merck KGaA, Darmstadt, Germany) was coated with 5 μL lipid solution. Thereafter the donor plate was fitted into the acceptor plate (MSSACCEPTOR, Merck KGaA, Darmstadt, Germany) already containing 300 μL PBS (pH 7.4) solutions with 1% DMSO. Finally, 150 μL of the initial solutions was pipetted into the donor plate, the plate sandwich was covered with a wet paper tissue and with a plate lid to avoid evaporation, and the system was incubated at 37 °C for 4 hours. Then samples were taken from the donor and acceptor wells and analyzed along with the initial solutions by HPLC.
[1] Pe=−2.303/A⋅(t−τss)⋅(1/1+ra)⋅lg[−ra+(1+ra/1−MR)⋅cD(t)/cD(0)]
[2] MR=1−cD(t)/cD(0)−VAcA(t)/VDcD(0)
where A is the filter area (0.24 cm^2), t is the incubation time (s), τss is the time to reach steady-state (s), ra is the sink asymmetry ratio approximated with a value of 10^−14, VD and VA are the volumes in the donor (0.15 mL) and the acceptor phase (0.3 mL), cD(t) is the concentration of the compound in the donor phase at time point t (mol/L), cD(0) is the concentration of the compound in the donor phase at time point zero (initial solutions, mol/L), cA(t) is the concentration of the compound in the acceptor phase at time point t (mol/L), cA(0) is the concentration of the compound in the acceptor phase at time point zero (mol/L).
as §1

[4] = PBS pH 6.5, 100 µM target concentration (1% DMSO), 2 hours, room temperature, mean of 3 replicates
[5] = PBS pH 6.5, 100 µM target concentration (1% DMSO), 2 hours, room temperature, mean of 3 replicates, read-out: Kinetic solubility
[6] = class in words, read-out: Kinetic solubility category

CN1N=C(c2ccccc2)c2ccc3c4c([nH]c3c2S1(=O)=O)CCC4 [Compound 3i]
Kinetic solubility [1, 4]: 1.7 ± 0.3 µM
logk (−) pH 7.0 [2]: 0.645

CC1=NN(C)S(=O)(=O)c2c(NN=C3CCCCC3)cccc21 [Compound 7e, 8-(2-Cyclohexylidenehydrazino)-2,4-dimethyl-2H-1,2,3-benzothiadiazine 1,1-dioxide]
GI PAMPA membrane retention (MR) category [3]: extremely high (extremely high above 90%)
GI PAMPA membrane retention [3]: 97.5 ± 0.3%
GI PAMPA penetration [3]: 0.0 10^−6 cm/s
GI PAMPA permeability in words [3]: nearly zero
solubility kinetic at 2 h [1, 5]: 86.3 ± 3.9 µM (≈ 27.7 µg/mL)
solubility kinetic at 2 h [1, 6]: > 30 µM
logk (−) pH 7.0 [2]: 0.626

CC1=NN(C)S(=O)(=O)c2c1ccc1c(C)c(C)[nH]c21 [Compound 3a]
solubility kinetic at 2 h [1, 5]: 1.5 ± 0.09 µM (≈ 0.416 µg/mL)
logk (−) pH 7.0 [2]: 0.580

CN1N=C(c2ccccc2)c2ccc3c4c([nH]c3c2S1(=O)=O)CCCC4 [Compound 3j]
Kinetic solubility (no value) ([1]; room temperature): –
logk (−) pH 7.0 [2]: 0.660

Cc1[nH]c2c3c(ccc2c1C)C(c1ccccc1)=NN(C)S3(=O)=O [Compound 3f]
solubility kinetic at 2 h [1, 5]: 5 ± 0.3 µM (≈ 1.7 µg/mL)
logk (−) pH 7.0 [2]: 0.629

CN1N=C(c2ccccc2)c2ccc3c([nH]c4c5ccccc5ccc34)c2S1(=O)=O [Compound 10b]
Kinetic solubility (no value) ([1]; room temperature): –
logk (−) pH 7.0 [2]: 0.685

CC1=NN(C)S(=O)(=O)c2c1ccc1c2[nH]c2c3ccccc3ccc12 [Compound 10a]
Kinetic solubility (no value) ([1]; room temperature): –
logk (−) pH 7.0 [2]: 0.637

Cc1c[nH]c2c3c(ccc12)C(c1ccccc1)=NN(C)S3(=O)=O [Compound 3h, 2,7-Dimethyl-4-phenyl-2,9-dihydro[1,2,3]thiadiazino[5,6-g]indole 1,1-dioxide]
solubility kinetic at 2 h [1, 5]: 8.6 ± 0.3 µM (≈ 2.8 µg/mL)
logk (−) pH 7.0 [2]: 0.614

CCC(CC)=NNc1cccc2c1S(=O)(=O)N(C)N=C2c1ccccc1 [Compound 7g]
Kinetic solubility (no value) ([1]; room temperature): –
logk (−) pH 7.0 [2]: 0.677

CCc1[nH]c2c3c(ccc2c1C)C(C)=NN(C)S3(=O)=O [Compound 3b]
GI PAMPA membrane retention (MR) category [3]: extremely high (extremely high above 90%)
GI PAMPA membrane retention [3]: 98.5 ± 0.1%
GI PAMPA penetration [3]: 0.0 10^−6 cm/s
GI PAMPA permeability in words [3]: nearly zero
solubility kinetic at 2 h [1, 5]: 31 ± 2.2 µM (≈ 9.03 µg/mL)
solubility kinetic at 2 h [1, 6]: > 30 µM
logk (−) pH 7.0 [2]: 0.603

CCC(CC)=NNc1cccc2c1S(=O)(=O)N(C)N=C2C [Compound 7b]
Kinetic solubility [1, 4]: 6.2 ± 0.3 µM
logk (−) pH 7.0 [2]: 0.625

CC1=NN(C)S(=O)(=O)c2c1ccc1c3c([nH]c21)CCC3 [Compound 3d]
solubility kinetic at 2 h [1, 5]: 3.2 ± 0.2 µM (≈ 0.926 µg/mL)
logk (−) pH 7.0 [2]: 0.591

CCC=NNc1cccc2c1S(=O)(=O)N(C)N=C2c1ccccc1 [crude 7h]
solubility kinetic at 2 h [1, 5]: 0.7 ± 0.02 µM (≈ 0.24 µg/mL)
logk (−) pH 7.0 [2]: 0.645
